Laboratory results as given in US11505539B2, “Deuterated compounds as inhibitors of the BCL6 BTB domain protein-protein interaction and/or as BCL6 degraders” (Ontario Institute for Cancer Research (OICR), priority 2017, dated 2022).

How the values were obtained:
[1] = Liver microsomal metabolic stability, human; assay type: in vitro ADME; settings: % remaining after 60 min, 1 μM compound, 0.5 mg/mL protein
Description: (§1) (f) Microsomal Stability Assays
(§2) Liver Microsomal Metabolic Stability
(§3) Working stocks were initially diluted to a concentration of 40.0 μM in 0.1 M potassium phosphate buffer (pH 7.4) before addition to the reaction vials. CD-1 mouse (male) or pooled human liver microsomes (Corning Gentest) were utilized at a final concentration of 0.5 mg/mL (protein). Duplicate wells were used for each time point (0 and 60 minutes). Reactions were carried out at 37° C. in an orbital shaker at 175 rpm, and the final DMSO concentration was kept constant at 0.1%. The final volume for each reaction was 100 μL, which includes the addition of an NADPH-Regeneration Solution (NRS) mix. This NRS mix is comprised of glucose 6-phosphate dehydrogenase, NADP+, MgCl2, and glucose 6-phosphate. Upon completion of the 60 minute time point, reactions were terminated by the addition of 2-volumes (200 μL) of ice-cold, acetonitrile containing 0.5% formic acid and internal standard. Samples were then centrifuged at 4,000 rpm for 10 minutes to remove debris and precipitated protein. Approximately 150 μL of supernatant was subsequently transferred to a new 96 well microplate for LC/MS analysis:
(§4) Narrow-window mass extraction LC-MS analysis was performed for all samples in this study using a Waters Xevo quadrupole time-of-flight (QTof) mass spectrometer to determine relative peak areas of test compounds. The percent remaining values are calculated using the following equations: % remaining=(A)/A0×100
(§5) A is area response after incubation
(§6) A0 is area response at initial time point

[2] = Liver microsomal metabolic stability, mouse; assay type: in vitro ADME; settings: % remaining after 60 min, 1 μM compound, 0.5 mg/mL protein
Description: as §1, §2, §3, §4, §5, §6

[3] = Microsomal intrinsic clearance assay; assay type: in vitro ADME; settings: pH 7.4, liver microsomes 0.5 mg/mL, species (mouse or human) not given; for microsomal CLint at 1 μM: read-out: Clint (μL/min/mg protein)
Description: CD-1 mouse (male) or pooled human liver microsomes (Corning Gentest) were utilized at a final concentration of 0.5 mg/mL (protein). 12.5 μL of each drug solution were placed into a well of 96 well plate. Reactions were initiated by the addition of activated microsome solutions (500 μL) to drug solutions. Reactions were carried out at 37° C. in an orbital shaker at 175 rpm, and the final DMSO concentration was kept constant at 0.1%. Test compounds were incubated at a final concentration of 1 μM. 50 μL of aliquots of reaction mixtures were quenched by mixing with two parts of stop solution (internal standard containing 0.5% formic acid in acetonitrile) at appropriate time-points and mixed well. Then, solutions were centrifuged at 4000 rpm for 10 min. Supernatants were transferred to a new 96-well plate and analyzed by a Waters Q-TOF mass spectrometer coupled with an UPLC System. Recovery analysis was performed using relative peak areas and narrow window mass extraction.
The ln(% remaining) is plotted against time and the gradient of the line determined. Elimination Constant (k)=−slope Half-life (t½)(min)=ln 2/k=0.693/k V (μL/mg)=volume of incubation (μL)/protein in the incubation (mg) Intrinsic Clearance (CLint)(μL/min/mg protein)=V·0.693/t½=V·k

[4] = as reported; limits use in animal studies; cited from earlier work
[5] = biological target: T1, BTB domain of BCL6 / SMRT BBD peptide (Homo sapiens, UniProt P41182); experiment: BCL6-BTB - SMRT peptide inhibition fluorescence polarization (FP) screen; assay type: binding; settings: 1.25 uM BCL6-BTB, 20 nM Bodipy-TMR SMRT peptide probe; lower limit of assay 1 uM
T1 construct: Thioredoxin-His6-STag-TEV-biotinylation-thrombin-BCL6 amino acids 1-129
Description: (a) BCL6-BTB—SMRT Peptide Inhibition Fluorescence Polarization (FP) Screen
Compounds were dissolved in 100% DMSO at 10 mM, assayed fresh, and then stored at −20° C. for repeat studies and future work. The reaction mixture consists of 1.25 uM of the 25 kd BCL6-BTB domain (Thioredoxin-His6-STag-TEV-biotinylation-thrombin-BCL6 amino acids 1-129) plus 20 nM of the peptide probe Ac-GSLVATVKEAGRSIHEIPA (SEQ ID NO: 1) with 16 amino acid peptide from the SMRT BBD (1414-1429) with a Bodipy-TMR fluorescent label on the lysine. […] 20 ul of this assay mixture was added to each well of the 384 well plates with the exception of the control wells that contained no protein (for setting the minimum FP value). Compounds were directly sprayed using an HP D300 Digital Dispenser from 10 mM DMSO stocks onto black 384 well plates (greiner bio-one #781900) in a concentration range from 1 uM to 500 uM (10 points in duplicate). The assay was equilibrated for 1 hour prior to reading the FP values (Ex 540 nm/Em 580 nm) with a Perkin Elmer Envision plate reader. The results were curve fitted and IC50 values were calculated using the BioAssay software from CambridgeSoft.

BCL6 BTB domain = biological target: T2, BCL6 BTB domain (Homo sapiens, UniProt P41182); experiment: Surface plasmon resonance (SPR) assay; assay type: binding; settings: Biacore T200, single cycle kinetics
T2 construct: BCL6 BTB domain (biotin-thrombin-BCL6 amino acids 1-129; 17 kd); Thioredoxin-His6-STag (N, cleaved yes); made in house
Description: (b) Surface Plasmon Resonance (SPR) Assay
SPR studies were performed using a Biacore™ T200 instrument (GE Health Sciences Inc.). The BCL6 BTB protein used in the FP assay was biotinylated using the site specific biotinylating enzyme BirA, and then cleaved with TEV protease to produce the BCL6 BTB domain (biotin-thrombin-BCL6 amino acids 1-129; 17 kd) that was use in SPR. This protein was stably captured (1000RU) to streptavidin coupled SA chips (BR-1005-31, GE Health Sciences Inc.) according to the manufacture's protocol. Compounds were dissolved in 100% DMSO at 10 mM and 2-fold serial dilutions were done in 100% DMSO. For SPR analysis the serially titrated compounds were diluted 1/20 into buffer (10 mM HEPES pH7.4, 150 mM NaCl, 0.05% Tween-20, 3 mM EDTA) giving a final concentration of 5% DMSO. The Biacore flow rate was set at 100 ul/min. For KD determinations, single cycle kinetic analysis was performed with an on time of 60 seconds, and an off time of 300 seconds. Curve fitting and KD calculations were done with the Biacore T200 Evaluation software (GE Health Sciences Inc).

[6] = test system: SuDHL4-3xBCL6-TK-Luc cells; experiment: Cell-based BCL6 reporter luciferase assay; settings: Homo sapiens, SU-DHL-4, 48 h, two days
Description: (c) Cell-Based Luciferase Assay:
A BCL6 reporter construct containing three copies of the consensus BCL6 binding site, the TK promoter, and the firefly luciferase gene was stably expressed in SuDHL4 cells after lentivirus infection and selection with Blasticidin. SuDHL4-3×BCL6-TK-Luc cells were seeded into a Viewplate 384-well assay dish at 15,000 cells/well in 25 ul medium (Alpha-MEM high glucose containing 10% FBS, 25 mM HEPES, […] GlutaMAX, 100 ug/ml Normocin, and […] Gentamycin, Invitrogen). A HP D300 digital dispenser was used to dose cells with DMSO or test compounds across a 10-point range of concentrations (high dose of 10 uM), and cultures were grown in a humidified 5% CO2 incubator at 37° C. After two days, plates were removed from incubator and equilibrated to room temperature. An equal volume of neolite reporter gene assay reagent was added to each well, and samples were processed according to manufacturer's instructions (Perkin Elmer). Luminescent signal was measured using an Envision plate reader equipped with a US-Luminescence detector.

Karpas422 cells = experiment: Tumor cell growth inhibition assay; assay type: cell-based; settings: Homo sapiens, KARPAS-422, 144 h; Karpas422, six days, ATPlite; read-out: GI Karpas EC50
Description: (d) Tumor Cell Growth inhibition Assay:
Karpas422 cells were seeded into a 96-well plate at 2,000 cells/well in 150 ul medium (Alpha-MEM containing 10% FBS, […] Normocin, and […] Gentamycin, Invitrogen). A HP D300 digital dispenser was used to dose cells with DMSO or test compounds across a 10-point range of concentrations (high dose of 5 uM), and cultures were grown in a humidified 5% CO2 incubator at 37° C. After six days, plates were removed from incubator and equilibrated to room temperature. An equal volume of ATPlite assay reagent was added to each well, and samples were processed according to manufacturer's instructions (Perkin Elmer). Luminescent signal was measured using an Envision plate reader equipped with a US-Luminescence detector.

Row | Human Liver Microsomes (HLM, % @ 1 h) [1] | Mouse Liver Microsomes (MLM, % @ 1 h) [2] | half-life at 1 μM [3] | microsomal CLint at 1 μM [3] | IC50 [5] | Kd (BCL6 BTB domain) | IC50 [6] | EC50 (Karpas422 cells) | Compound | bioavailability [4]
1 | 25% | 13% | 12 min | 112 µL/min/mg |  |  |  |  | CNC(=O)COc1cc2cc(Nc3nc(N4C[C@H](C)C[C@H](C)C4)ncc3Cl)ccc2n(C)c1=O [BI-3802, reference compound] | poor bioavailability
2 | 26% | 8% | 29 min | 48 µL/min/mg | ≤ 1000 nM | 4.56 nM | 46.6 nM | 14.1 nM | [2H]C([2H])([2H])NC(=O)C([2H])([2H])Oc1cc2cc(Nc3nc(N4C[C@H](C)C[C@H](C)C4)ncc3Cl)ccc2n(C)c1=O [Example Ia, 2-((6-((5-chloro-2-((3R,5S)-3,5-dimethylpiperidin-1-yl)pyrimidin-4-yl)amino)-1-methyl-2-oxo-1,2-dihydroquinolin-3-yl)oxy)-N-(methyl-d3)acetamide-2,2-d2] | 
3 | 100% | 91% | 82 min | 17 µL/min/mg | ≤ 900 nM | 4.53 nM | 7.57 nM | 5.04 nM | [2H]C([2H])([2H])NC(=O)C([2H])([2H])Oc1cc2cc(Nc3nc(N4C[C@@H](C)C(F)(F)[C@@H](C)C4)ncc3Cl)ccc2n(C)c1=O [Ib] | 
